One assay deals with PARG (Homo sapiens, UniProt Q86W56). Put plainly: Biochemical assay (PARG, TFMU-ADPr substrate). To be noted: PARG, TFMU-ADPr substrate.
Another assay has as its system HCC1806. Briefly: Cell viability assay (CellTiter-Glo). It is filed as cell-based, Human. To be noted: Homo sapiens, HCC1806, 168 h, HCC1806, 7 days, CellTiter-Glo; read-out: IC50 (nM) in cell viability assay.

Sequence of PARG (Q86W56 whole entry): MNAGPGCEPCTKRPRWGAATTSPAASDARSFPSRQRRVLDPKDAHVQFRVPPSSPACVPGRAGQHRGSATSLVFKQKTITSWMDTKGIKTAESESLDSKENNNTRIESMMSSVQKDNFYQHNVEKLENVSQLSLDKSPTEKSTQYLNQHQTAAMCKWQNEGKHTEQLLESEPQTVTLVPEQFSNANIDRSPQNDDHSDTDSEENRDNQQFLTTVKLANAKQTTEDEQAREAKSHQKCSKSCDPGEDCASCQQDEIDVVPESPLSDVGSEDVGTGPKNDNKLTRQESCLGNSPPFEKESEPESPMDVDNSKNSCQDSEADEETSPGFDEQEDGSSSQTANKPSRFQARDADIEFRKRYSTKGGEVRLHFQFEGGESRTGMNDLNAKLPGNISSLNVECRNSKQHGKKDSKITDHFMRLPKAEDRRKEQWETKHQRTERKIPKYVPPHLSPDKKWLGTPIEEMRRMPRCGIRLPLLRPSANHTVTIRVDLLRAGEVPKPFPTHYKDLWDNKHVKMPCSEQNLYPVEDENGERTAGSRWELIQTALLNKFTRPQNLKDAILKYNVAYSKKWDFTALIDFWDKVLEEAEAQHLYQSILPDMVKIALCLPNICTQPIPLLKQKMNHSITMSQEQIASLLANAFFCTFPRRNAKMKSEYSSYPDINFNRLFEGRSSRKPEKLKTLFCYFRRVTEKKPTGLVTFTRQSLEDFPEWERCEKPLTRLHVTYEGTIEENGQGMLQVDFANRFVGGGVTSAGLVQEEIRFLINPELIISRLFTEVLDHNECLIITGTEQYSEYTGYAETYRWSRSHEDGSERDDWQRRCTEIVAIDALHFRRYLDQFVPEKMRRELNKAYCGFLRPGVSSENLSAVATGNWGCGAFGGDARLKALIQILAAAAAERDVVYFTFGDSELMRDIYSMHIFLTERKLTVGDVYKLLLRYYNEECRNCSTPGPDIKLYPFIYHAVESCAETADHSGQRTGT

Turning to `CC1(NS(=O)(=O)c2cc(N3CCN(C(=O)c4ccncc4)CC3)c3cnc(-c4nnc(C(F)F)s4)n3c2)CC1` [Example 338, 3-(5-(difluoromethyl)-1,3,4-thiadiazol-2-yl)-8-(4-isonicotinoylpiperazin-1-yl)-N-(1-methylcyclopropyl)imidazo[1,5-a]pyridine-6-sulfonamide], the IC50 – broadly, the point on the concentration scale where inhibition reaches its midpoint – is 0.48 nM against PARG and 50 nM in the assay on HCC1806.
For `CC1(NS(=O)(=O)c2cc(N3CCN(C(=O)c4ncc[nH]4)CC3)c3cnc(-c4nnc(C(F)F)s4)n3c2)CC1` [Example 339, 8-(4-(1H-imidazole-2-carbonyl)piperazin-1-yl)-3-(5-(difluoromethyl)-1,3,4-thiadiazol-2-yl)-N-(1-methylcyclopropyl)imidazo[1,5-a]pyridine-6-sulfonamide], in that order: 3.16 nM and 226 nM.
For the compound `CC1(NS(=O)(=O)c2cc(N3CCN(C(=O)c4c[nH]cn4)CC3)c3cnc(-c4nnc(C(F)F)s4)n3c2)CC1` [Example 340, 8-(4-(1H-imidazole-4-carbonyl)piperazin-1-yl)-3-(5-(difluoromethyl)-1,3,4-thiadiazol-2-yl)-N-(1-methylcyclopropyl)imidazo[1,5-a]pyridine-6-sulfonamide], the figures for the IC50 on PARG and with HCC1806 were 2.15 nM and 1580 nM, respectively.
For the compound `CC1(NS(=O)(=O)c2cc(N3CCNCC3)c3cnc(-c4nnc(C(F)F)s4)n3c2)CC1` [Example 341, 3-(5-(difluoromethyl)-1,3,4-thiadiazol-2-yl)-N-(1-methylcyclopropyl)-8-(piperazin-1-yl)imidazo[1,5-a]pyridine-6-sulfonamide], the IC50 at PARG amounted to 2.42 nM; in the assay with HCC1806, 139 nM.
For `CC1(NS(=O)(=O)c2cc(N3CCO[C@H](CO)C3)c3cnc(-c4nnc(C(F)F)s4)n3c2)CC1` [Example 342, (S)-3-(5-(difluoromethyl)-1,3,4-thiadiazol-2-yl)-8-(2-(hydroxymethyl)morpholino)-N-(1-methylcyclopropyl)imidazo[1,5-a]pyridine-6-sulfonamide], in that order: 3.04 nM and 297 nM.
Regarding `CC1(NS(=O)(=O)c2cc(N3CCN(C(=O)C4CC(=O)N4)CC3)c3cnc(-c4nnc(C(F)(F)F)s4)n3c2)CC1` (stereo not shown) [Example 343, N-(1-methylcyclopropyl)-8-(4-(4-oxoazetidine-2-carbonyl)piperazin-1-yl)-3-(5-(trifluoromethyl)-1,3,4-thiadiazol-2-yl)imidazo[1,5-a]pyridine-6-sulfonamide], the results for the IC50 at PARG and in the assay with HCC1806 were 5.41 nM and 852 nM, respectively.
Turning to `CC(C)C(=O)N1CCN(c2cc(S(=O)(=O)NC3(C#N)CC3)cn3c(-c4nnc(C(F)(F)F)s4)ncc23)C(C)C1` (stereo not shown) [Example 344, N-(1-cyanocyclopropyl)-8-(4-isobutyryl-2-methylpiperazin-1-yl)-3-(5-(trifluoromethyl)-1,3,4-thiadiazol-2-yl)imidazo[1,5-a]pyridine-6-sulfonamide], the IC50 is 38.3 nM against PARG and 586 nM in the assay with HCC1806.
For the compound `CC1(NS(=O)(=O)c2cc(N3CCN(C(=O)C4(CO)CC4)CC3)c3cnc(-c4nnc(C(F)(F)F)s4)n3c2)CC1` [Example 345, 8-(4-(1-(hydroxymethyl)cyclopropane-1-carbonyl)piperazin-1-yl)-N-(1-methylcyclopropyl)-3-(5-(trifluoromethyl)-1,3,4-thiadiazol-2-yl)imidazo[1,5-a]pyridine-6-sulfonamide], the values for the IC50 on PARG and in the assay on HCC1806 were 5.01 nM and 374 nM, respectively.
For `COCC1(O)CCN(c2cc(S(=O)(=O)NC3(C)CC3)cn3c(-c4nnc(C(F)F)s4)ncc23)CC1` [Example 346, 3-(5-(difluoromethyl)-1,3,4-thiadiazol-2-yl)-8-(4-hydroxy-4-(methoxymethyl)piperidin-1-yl)-N-(1-methylcyclopropyl)imidazo[1,5-a]pyridine-6-sulfonamide], the IC50 against PARG was determined as 1.53 nM; with HCC1806, 109 nM.
For `CC1(NS(=O)(=O)c2cc(N3CCOCC3)c3cnc(-c4nnc(C(F)F)s4)n3c2)CC1` [Example 347, 3-(5-(difluoromethyl)-1,3,4-thiadiazol-2-yl)-N-(1-methylcyclopropyl)-8-morpholinoimidazo[1,5-a]pyridine-6-sulfonamide], in that order: 4.64 nM and 282 nM.
Take `COC1CN(c2cc(S(=O)(=O)NC3(C)CC3)cn3c(-c4nnc(C(F)F)s4)ncc23)CCC1O` (stereo not shown) [Example 348, 3-(5-(difluoromethyl)-1,3,4-thiadiazol-2-yl)-8-(4-hydroxy-3-methoxypiperidin-1-yl)-N-(1-methylcyclopropyl)imidazo[1,5-a]pyridine-6-sulfonamide]: the IC50 at PARG worked out at 1.99 nM; in the assay with HCC1806, 257 nM.
For `CC1(NS(=O)(=O)c2cc(N3CCC(O)C(O)C3)c3cnc(-c4nnc(C(F)F)s4)n3c2)CC1` (stereo not shown) [Example 349, 3-(5-(difluoromethyl)-1,3,4-thiadiazol-2-yl)-8-(3,4-dihydroxypiperidin-1-yl)-N-(1-methylcyclopropyl)imidazo[1,5-a]pyridine-6-sulfonamide], the IC50 came out at 3.98 nM at PARG and 455 nM in the assay on HCC1806.
Take `COC1(CN2CCN(c3cc(S(=O)(=O)NC4(C)CC4)cn4c(-c5nnc(C(F)F)s5)ncc34)CC2)CC1` [Example 350, 3-(5-(difluoromethyl)-1,3,4-thiadiazol-2-yl)-8-(4-((1-methoxycyclopropyl)methyl)piperazin-1-yl)-N-(1-methylcyclopropyl)imidazo[1,5-a]pyridine-6-sulfonamide]: the IC50 was 20 nM at PARG and 713 nM in the assay on HCC1806.
In the same order, the values of `CN1CCC(F)(F)C1C(=O)N1CCN(c2cc(S(=O)(=O)NC3(C)CC3)cn3c(-c4nnc(C(F)(F)F)s4)ncc23)CC1` (stereo not shown) [Example 351, 8-(4-(3,3-difluoro-1-methylpyrrolidine-2-carbonyl)piperazin-1-yl)-N-(1-methylcyclopropyl)-3-(5-(trifluoromethyl)-1,3,4-thiadiazol-2-yl)imidazo[1,5-a]pyridine-6-sulfonamide] are 4.13 nM and 163 nM.
For the compound `CC1(NS(=O)(=O)c2cc(N3CCN(C(=O)[C@H]4CC(F)(F)CN4)CC3)c3cnc(-c4nnc(C(F)(F)F)s4)n3c2)CC1` [Example 352, (R)-8-(4-(4,4-difluoropyrrolidine-2-carbonyl)piperazin-1-yl)-N-(1-methylcyclopropyl)-3-(5-(trifluoromethyl)-1,3,4-thiadiazol-2-yl)imidazo[1,5-a]pyridine-6-sulfonamide], the IC50 against PARG was 15.3 nM; in the assay on HCC1806, 561 nM.
In the case of `CN1CC(F)(F)C[C@@H]1C(=O)N1CCN(c2cc(S(=O)(=O)NC3(C)CC3)cn3c(-c4nnc(C(F)(F)F)s4)ncc23)CC1` [Example 353, (R)-8-(4-(4,4-difluoro-1-methylpyrrolidine-2-carbonyl)piperazin-1-yl)-N-(1-methylcyclopropyl)-3-(5-(trifluoromethyl)-1,3,4-thiadiazol-2-yl)imidazo[1,5-a]pyridine-6-sulfonamide], the IC50 is 12.6 nM at PARG and 434 nM with HCC1806.
For `C[C@H]1CN(c2cc(S(=O)(=O)NC3(C)COC3)cn3c(-c4nnc(C(F)F)s4)ncc23)C[C@H](C)O1` [Example 354, 3-(5-(difluoromethyl)-1,3,4-thiadiazol-2-yl)-8-((2S,6S)-2,6-dimethylmorpholino)-N-(3-methyloxetan-3-yl)imidazo[1,5-a]pyridine-6-sulfonamide], in that order: 0.27 nM and 65.8 nM.

Values taken from US20260258035A1, “FIVE-MEMBERED AND SIX-MEMBERED NITROGEN-CONTAINING COMPOUND, AND INTERMEDIATE, PREPARATION METHOD AND USE THEREOF” (HANGZHOU SYNRX THERAPEUTICS BIOMEDICAL TECHNOLOGY CO., LTD., priority 2022, published 2026).
